Source: patent US20240246942A1, “KINASE INHIBITORS FOR THE TREATMENT OF NEURODEGENERATIVE DISEASES” (priority 2020, published 2024)

Columns and labels:
Test in all cases: biochemical
[1] = biological target: T1, panel of 374 wild-type kinases (Homo sapiens, UniProt P54760); details: read-out: % Enzyme Activity (relative to DMSO controls), EPHB4
T1 construct: purchased Reaction Biology Corporation
T1 sequence (P54760 16-987): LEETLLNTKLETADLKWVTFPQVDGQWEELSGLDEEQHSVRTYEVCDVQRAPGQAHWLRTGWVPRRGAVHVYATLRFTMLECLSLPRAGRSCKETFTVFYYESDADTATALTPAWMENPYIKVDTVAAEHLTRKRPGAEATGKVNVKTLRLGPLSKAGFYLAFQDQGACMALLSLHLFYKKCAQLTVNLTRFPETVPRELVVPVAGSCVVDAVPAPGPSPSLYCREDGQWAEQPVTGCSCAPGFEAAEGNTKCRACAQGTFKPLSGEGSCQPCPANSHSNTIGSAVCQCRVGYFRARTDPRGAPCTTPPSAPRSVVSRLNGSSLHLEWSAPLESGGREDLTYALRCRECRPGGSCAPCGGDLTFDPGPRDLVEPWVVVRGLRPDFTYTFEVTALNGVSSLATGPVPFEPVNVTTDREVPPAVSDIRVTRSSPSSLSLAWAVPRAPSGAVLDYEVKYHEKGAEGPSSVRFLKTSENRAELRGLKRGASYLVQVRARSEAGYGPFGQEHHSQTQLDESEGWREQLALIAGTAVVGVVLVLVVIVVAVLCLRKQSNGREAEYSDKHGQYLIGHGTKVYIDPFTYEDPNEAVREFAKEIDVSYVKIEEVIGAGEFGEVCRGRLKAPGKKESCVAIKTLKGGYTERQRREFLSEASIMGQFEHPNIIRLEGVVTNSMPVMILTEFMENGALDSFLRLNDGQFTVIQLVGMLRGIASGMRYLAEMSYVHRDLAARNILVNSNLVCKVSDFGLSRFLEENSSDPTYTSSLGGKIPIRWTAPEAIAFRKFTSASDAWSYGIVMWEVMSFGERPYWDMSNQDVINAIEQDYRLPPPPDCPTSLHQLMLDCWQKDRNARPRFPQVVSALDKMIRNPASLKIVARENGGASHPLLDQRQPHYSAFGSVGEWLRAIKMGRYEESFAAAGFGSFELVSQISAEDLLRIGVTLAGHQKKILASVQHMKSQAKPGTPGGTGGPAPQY

[2] = biological target: T2, panel of 374 wild-type kinases (Homo sapiens, UniProt Q08881); details: read-out: % Enzyme Activity (relative to DMSO controls), ITK
T2 construct: purchased Reaction Biology Corporation
T2 sequence (Q08881 1-620): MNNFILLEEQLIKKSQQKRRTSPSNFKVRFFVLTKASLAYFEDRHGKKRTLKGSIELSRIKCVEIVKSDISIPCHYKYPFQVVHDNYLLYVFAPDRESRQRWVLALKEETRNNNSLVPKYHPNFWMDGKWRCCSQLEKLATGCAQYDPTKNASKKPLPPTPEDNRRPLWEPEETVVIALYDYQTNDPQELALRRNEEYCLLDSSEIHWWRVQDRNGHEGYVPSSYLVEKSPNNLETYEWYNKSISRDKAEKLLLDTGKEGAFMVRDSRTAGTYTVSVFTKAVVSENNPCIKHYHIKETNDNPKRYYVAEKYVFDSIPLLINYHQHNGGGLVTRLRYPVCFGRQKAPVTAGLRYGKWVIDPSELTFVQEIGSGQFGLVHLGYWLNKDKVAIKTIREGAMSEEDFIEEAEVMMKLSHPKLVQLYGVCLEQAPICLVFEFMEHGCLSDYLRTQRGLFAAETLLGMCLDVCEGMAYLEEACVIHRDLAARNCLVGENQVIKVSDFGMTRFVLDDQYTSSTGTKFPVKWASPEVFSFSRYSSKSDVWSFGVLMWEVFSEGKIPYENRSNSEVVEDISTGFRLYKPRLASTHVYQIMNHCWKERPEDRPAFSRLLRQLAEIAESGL

[3] = biological target: T3, panel of 374 wild-type kinases (Homo sapiens, UniProt Q99683); details: read-out: % Enzyme Activity (relative to DMSO controls), ASK1/MAP3K5
T3 construct: purchased Reaction Biology Corporation
T3 sequence (Q99683 1-1374): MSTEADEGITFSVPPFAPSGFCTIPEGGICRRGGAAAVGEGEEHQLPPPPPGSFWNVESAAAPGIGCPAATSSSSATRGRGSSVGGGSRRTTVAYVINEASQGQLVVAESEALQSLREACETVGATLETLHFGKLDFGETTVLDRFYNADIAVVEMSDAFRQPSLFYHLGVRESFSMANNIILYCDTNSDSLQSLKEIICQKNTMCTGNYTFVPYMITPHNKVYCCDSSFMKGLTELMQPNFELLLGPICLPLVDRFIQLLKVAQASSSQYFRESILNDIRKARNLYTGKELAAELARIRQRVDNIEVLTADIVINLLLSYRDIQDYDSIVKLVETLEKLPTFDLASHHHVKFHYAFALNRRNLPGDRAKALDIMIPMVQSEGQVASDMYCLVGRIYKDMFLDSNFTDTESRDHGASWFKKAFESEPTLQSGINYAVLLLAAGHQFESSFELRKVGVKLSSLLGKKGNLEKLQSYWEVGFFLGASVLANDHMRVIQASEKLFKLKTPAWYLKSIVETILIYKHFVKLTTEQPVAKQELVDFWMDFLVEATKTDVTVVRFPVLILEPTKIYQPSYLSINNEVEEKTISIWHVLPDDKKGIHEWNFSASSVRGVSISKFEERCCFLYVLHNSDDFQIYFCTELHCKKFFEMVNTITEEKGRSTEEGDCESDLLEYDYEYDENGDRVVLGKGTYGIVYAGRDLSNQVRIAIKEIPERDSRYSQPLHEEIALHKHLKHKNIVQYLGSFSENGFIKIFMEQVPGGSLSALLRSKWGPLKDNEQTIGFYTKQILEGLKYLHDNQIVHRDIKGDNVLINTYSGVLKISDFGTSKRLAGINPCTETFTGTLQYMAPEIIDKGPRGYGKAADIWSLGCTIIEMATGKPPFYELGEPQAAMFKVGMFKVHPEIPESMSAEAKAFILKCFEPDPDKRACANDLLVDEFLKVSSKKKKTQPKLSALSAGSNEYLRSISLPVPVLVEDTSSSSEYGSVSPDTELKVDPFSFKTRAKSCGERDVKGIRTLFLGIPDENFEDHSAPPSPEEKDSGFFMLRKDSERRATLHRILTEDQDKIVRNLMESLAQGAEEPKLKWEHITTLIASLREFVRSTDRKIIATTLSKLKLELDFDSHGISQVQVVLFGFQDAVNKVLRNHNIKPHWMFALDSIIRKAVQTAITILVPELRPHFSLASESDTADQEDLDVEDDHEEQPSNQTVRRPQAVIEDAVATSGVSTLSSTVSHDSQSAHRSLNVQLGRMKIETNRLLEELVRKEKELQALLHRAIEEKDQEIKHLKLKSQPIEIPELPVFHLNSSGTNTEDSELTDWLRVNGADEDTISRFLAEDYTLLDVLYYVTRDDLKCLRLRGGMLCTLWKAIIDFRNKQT

Compound | remaining activity at 5 µM [1] [%] | remaining activity at 5 µM [2] [%] | remaining activity at 5 µM [3] [%] | remaining activity at 10 µM ([1]; 10 uM) [%] | remaining activity at 10 µM ([2]; 10 uM) [%] | remaining activity at 10 µM ([3]; 10 uM) [%]
O=C(Nc1cnn(-c2csc(C(=O)NC3COC3)c2)c1)Nc1ccccc1Cl [Compound 17, 4-(4-(3-(2-chlorophenyl)ureido)-1H-pyrazol-1-yl)-N-(oxetan-3-yl)thiophene-2-carboxamide] | 97.8 | 107 | 91.2 | – | – | –
Cc1sc(C(=O)NC2COC2)cc1-n1cc(NC(=O)Nc2c(F)cccc2Cl)cn1 [Compound 27, 4-(4-(3-(2-chloro-6-fluorophenyl)ureido)-1H-pyrazol-1-yl)-5-methyl-N-(oxetan-3-yl)thiophene-2-carboxamide] | – | – | – | 93.7 | 94.4 | 94
O=C(Nc1cnn(-c2csc(C(=O)NC3COC3)c2)c1)Nc1c(F)cccc1Cl [Compound 25, 4-(4-(3-(2-chloro-6-fluorophenyl)ureido)-1H-pyrazol-1-yl)-N-(oxetan-3-yl)thiophene-2-carboxamide] | 98.1 | 92.8 | 91.1 | – | – | –
